Consider one compound from US5276054A, “Substituted hexahydrobenzopyran derivatives as angiotensin II antagonists” (Merck & Co., Inc., priority 1992, dated 1994).

Assay [1] has as its target T1, angiotensin II receptor, site 2 (AT-2 receptor) (Rattus norvegicus, UniProt P35351).
T1 construct: Adrenal membranes for the receptor assay were readied first by placing cleaned, whole adrenal glands in microcentrifuge tubes; from tissue; host or cells: rat adrenal glands (whole), membranes
T1 sequence (P35351 1-363): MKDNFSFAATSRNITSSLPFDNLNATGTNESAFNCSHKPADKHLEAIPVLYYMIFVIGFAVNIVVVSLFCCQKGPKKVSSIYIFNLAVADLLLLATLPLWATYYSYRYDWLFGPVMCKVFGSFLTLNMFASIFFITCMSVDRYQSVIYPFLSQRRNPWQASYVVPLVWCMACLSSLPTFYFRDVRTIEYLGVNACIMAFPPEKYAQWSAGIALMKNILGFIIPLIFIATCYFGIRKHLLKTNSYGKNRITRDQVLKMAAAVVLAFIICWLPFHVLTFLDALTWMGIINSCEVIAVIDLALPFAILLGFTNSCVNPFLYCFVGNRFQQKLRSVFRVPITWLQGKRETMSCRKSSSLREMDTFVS
Briefly: Receptor assay using rat adrenal gland preparation (125I-Angiotensin II binding), site 2. The source says:
Angiotensin II (AII) is a powerful arterial vasoconstrictor, and it exerts its action by interacting with specific receptors present on cell membranes. The compounds of the present invention are competitive antagonists of AII at receptor sites. The usefulness of compounds as AII antagonists may be determined from the results of certain receptor binding assays. The initial assay is that using rat adrenal glands and the results of this assay are described herein.
Receptor assay using rat adrenal gland preparation
Adrenal membranes for the receptor assay were readied first by placing cleaned, whole adrenal glands in microcentrifuge tubes (20 glands per tube), and freezing and storing under liquid nitrogen. As needed, a microcentrifuge tube of adrenal glands was homogenized in 20 ml 50 mM Tris-HCl pH 7.7 and centrifuged at 20,000 rpm for 15 minutes at 4° C. […]
For the assay, the adrenal membrane preparation in one vial was resuspended in 30 ml of 100 mM Tris-HCl pH 7.4 with 5 mM MgCl2, 0.2% bovine serum albumin and 0.2 mg/ml bacitracin. […] The vials are counted with a gamma counter for one minute and percent inhibition determined from counts/min (CPM) as follows: [formula] The IC50 is determined by plotting percent inhibition v. concentration of compound tested.

In assay [2] the target is T2, angiotensin II receptor, site 1 (Oryctolagus cuniculus, UniProt P34976).
T2 construct: tissue Pel-Freeze Biologicals; host or cells: rabbit aorta, membranes
T2 sequence (P34976 1-359): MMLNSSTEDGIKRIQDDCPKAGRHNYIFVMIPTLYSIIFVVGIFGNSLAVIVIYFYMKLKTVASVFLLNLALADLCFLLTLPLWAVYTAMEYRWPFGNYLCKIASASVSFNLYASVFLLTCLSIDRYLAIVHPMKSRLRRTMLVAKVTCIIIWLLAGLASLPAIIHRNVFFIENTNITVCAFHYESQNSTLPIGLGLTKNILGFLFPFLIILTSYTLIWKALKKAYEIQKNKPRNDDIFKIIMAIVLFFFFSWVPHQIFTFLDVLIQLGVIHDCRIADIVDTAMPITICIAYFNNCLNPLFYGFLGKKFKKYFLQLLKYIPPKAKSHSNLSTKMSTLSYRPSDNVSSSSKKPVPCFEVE
Briefly: Receptor binding assay using rabbit aortae membrane preparation (125I-Sar1 Ile8-angiotensin II), site 1. As to conditions: rabbit aortae membranes, 37° C., 90 minutes. How it is done: On positive results with rat adrenal gland assay, assays using rabbit aorta may be employed.
Receptor binding assay using rabbit aortae membrane preparation
Three frozen rabbit aortae (obtained from Pel-Freeze Biologicals) were suspended in 5 mM Tris-0.25M Sucrose, pH 7.4 buffer (50 mL) homogenized, and then centifuged. The mixture was filtered through a cheesecloth and the supernatant was centrifuged for 30 minutes at 20,000 rpm at 4° C. The pellet thus obtained was resuspended in 30 mL of 50 mM Tris-5 mM MgCl2 buffer containing 0.2% Bovine Serum Albumin and 0.2 mg/mL Bacitracin and the suspension was used for 100 assay tubes. Samples tested for screening were done in duplicate. To the membrane preparation (0.25 mL) there was added ^125 I-Sar^1 Ile^8 -angiotensin II [obtained from New England Nuclear] ([…]; 20,000 cpm) with or without the test sample and the mixture was incubated at 37° C. for 90 minutes. The mixture was then diluted with ice-cold 50 mM Tris-0.9% NaCl, pH 7.4 (4 mL) and filtered through a glass fiber filter (GF/B Whatman 2.4" diameter). The filter was soaked in scintillation cocktail (10 mL) and counted for radioactivity using Packard 2660 Tricarb liquid scintillation counter. […]

For orientation: IC50 means the point on the concentration scale where inhibition reaches its midpoint. A high value points to weaker potency.

“And” between values parts separate entries of the source, which are not always exact repeats. Equal values may be shown once.

Turning to `CCCCCC1=C(C=O)C2OC(C)(C)C(O)CC23OC3C1=O` (stereo not drawn) [Compound A], the IC50 is 1620 to 3240 nM and 1000 to 2000 nM in assay [1] (rat adrenal membranes, 37° C., 90 minutes, site 2); 25900 nM in assay [2]. Further, the “antagonist activity at AT-2 receptor sites” value in assay [1] (statement in words) is reported as “antagonist activity at AT-2 receptor sites”.
